Data as given in patent publication US20170151268A1, “GLYCAN THERAPEUTICS AND RELATED METHODS THEREOF” (KALEIDO BIOSCIENCES, INC., priority 2015, published 2017).
Converted amounts (≈) assume the structure as drawn.

Legend:
gut microbiota = assay: Mouse model of Clostridium difficile infection, gut microbiota 16S rRNA sequencing; format: in vivo; details: Day 6; predicted from 16S rRNA sequencing using PICRUST
Procedure: (§1) Mice (female C57BL/6, 8-10 weeks old, 16-18 grams each; Harlan Laboratories, Indianapolis, Ind.) were housed in groups of 3 per cage, with 4 cages per treatment group. Mice were exposed to a cocktail of antibiotics in their drinking water for a period of 9 days, starting on day −14, fourteen days before Clostridium difficile challenge on day 0. The antibiotic cocktail consisted of 1% glucose, kanamycin (0.5 mg/ml), gentamicin (0.044 mg/ml), colistin (1062.5 U/ml), metronidazole (0.269 mg/ml), ciprofloxacin (0.156 mg/ml), ampicillin (0.1 mg/ml) and vancomycin (0.056 mg/ml). Three days prior to Clostridium difficile challenge (on Day −3), mice received a single dose of clindamycin (10 mg/kg) in a volume of 0.5 mL distilled water by oral gavage (PO) (see Table 10). All chemicals were purchased from Sigma-Aldrich Corp. (St. Louis, Mo.). On day 0, mice were challenged with Clostridium difficile (strain VPI 10463 (ATCC-43255)) spores at approximately 4.5 log10 spores per mouse, PO, in a dose volume of 0.5 mL distilled water.
To determine how the gut microbiota composition responds to treatment with glycan therapeutics, 16S rRNA sequencing of fecal pellets on the V4 variable region using standard protocols from the Earth Microbiome Project was performed (www.earthmicrobiome.org/emp-standard-protocols/). […]

[1] = system: Clostridium difficile (strain VPI 10463 (ATCC-43255)); assay: Mouse model of Clostridium difficile infection, disease-associated phenotypes; format: in vivo
Procedure: This experiment was conducted to analyze the effects of glycan therapeutics in a mouse model of Clostridium difficile infection (Chen et al, 2008, A Mouse Model of Clostridium difficile—Associated Disease. Gastroenterology 135(6), 1984-1992). In this model, normal mice were exposed to an antibiotic regimen that renders them susceptible to C. difficile infection and disease symptoms, similar with respect to their development and manifestation of human clinical disease. In humans, the disease is most often the result of exposure to broad spectrum antibiotics which is thought to result in intestinal dysbiosis and subsequent increased colonic colonization with C. difficile. The increased bio-burden of C. difficile leads to toxin production by the bacterium and colonic inflammation. Clinical manifestations in humans include diarrhea, weight loss, intestinal inflammation, fever and dehydration. The clinical incidence of C. difficile infection and disease is about 750,000 cases per year in the US.
as §1
Disease-associated phenotypes were recorded for a duration of ten days starting on the day of Clostridium difficile challenge (on day 0) through day 10. The phenotypes, including lethargy, hunched posture and ruffled coat, wet tail/abdomen and hypothermia were scored from 0 to 4: Normal=0; Lethargic=1; Lethargic+Hunched=2; Lethargic+Hunched+Wet tail/abdomen (diarrhea)=3; and Lethargic+Hunched+Wet tail/abdomen+Hypothermic=4. Death (day 0 to day 10 or 11) and weight (day 1 to day 7 and day 10) of the animals was also monitored and recorded.
In these studies, all animals with wet tail/abdomen (diarrhea; clinical score of “3”) progressed to death. Diarrhea is an indication of colonic inflammation and hemorrhage and is a contributing factor to the weight loss seen in rodent models of C. difficile colonization/infection.
A treatment's ability to protect animals from death through day 6 in these experiments indicates disease prevention, e.g., in a human.
In addition, carriage of Clostridium difficile spores, which is indicative of Clostridium difficile gut colonization in both mice and humans, was assessed daily from day 0 to day 6. For spore CFU enumeration, fecal pellets from the mice were suspended in 50% ethanol in phosphate-buffered saline (PBS) and vortexed. […]
Effects of treatments was assessed by comparing the disease-associated phenotypes in glycan-treated, untreated (plain water) and vancomycin-treated groups. […]

[2] = 25° C., reported by Sigma-Aldrich; cited from earlier work

CN[C@H](CC(C)C)C(=O)N[C@H]1C(=O)N[C@@H](CC(N)=O)C(=O)N[C@H]2C(=O)N[C@H]3C(=O)N[C@H](C(=O)N[C@H](C(=O)O)c4cc(O)cc(O)c4-c4cc3ccc4O)[C@H](O)c3ccc(c(Cl)c3)Oc3cc2cc(c3O[C@@H]2O[C@H](CO)[C@@H](O)[C@H](O)[C@H]2O[C@H]2C[C@](C)(N)[C@H](O)[C@H](C)O2)Oc2ccc(cc2Cl)[C@H]1O [vancomycin]
predicted functional potential of the gut microbiome to convert primary bile acids to secondary bile acids (gut microbiota): not observed | animals died by day 10 ([1]; PO gavage QD days 0 to 4): 17% | animals survived to day 7 ([1]; PO gavage QD days 0 to 4): 100% | clinical score of survivors (0 to 4) ([1]; after treatments were discontinued, through day 10 or 11): above 0 | C. difficile spores in the feces ([1]; days 0-6): no detectable spores | clinical signs on day 10 ([1]; mouse, in vivo): exhibited clinical signs

O=C[C@H](O)[C@@H](O)[C@H](O)[C@H](O)CO [D-glucose]
aqueous solubility [2]: 0.909 g/mL (≈ 5050 mM) | aqueous solubility as Brix [2]: 48 Brix
